Assays:
Type in all cases: cell-based, human
[1] = tested on: COX-2 in vHMEC over expressing TRF2; test: phospho-p38 inhibitor treatment of vHMEC over expressing TRF2; COX-2 by Q-PCR and immunoblot; conditions: early passage vHMEC expressing TRF2, SB203580 24 hrs
Text: Cell Culture: Human mammary epithelial cells (vHMEC) were isolated from reduction mammoplasty (RM) of four individuals RM9, RM15, RM16 and RM18. HMEC undergo a spontaneous proliferation barrier between 8 and 12 population doublings. Variant human mammary epithelial cells (vHMEC) escape this growth barrier and have silenced p16 through promoter methylation. Cells were propagated in 2D cultures in modified MCBD 170 media (MEGM, Lonza) as previously described (Romanov et al, 2001; Hammond et al 1984). All experiments were performed on exponentially growing early passage vHMEC (between 13 to 20 population doublings); RM9, 15, 16 and 18 cease to expand in cell number at population doublings 45, 60, 50 and 53, respectively. […]
(§1) Quantitative PCR: Total RNA was isolated from cells and cDNA synthesized using standard methods. cDNA was subsequently used for quantitative real-time PCR using the standard curve method. […]
(§2) Western Blotting, ELISA and Immunofluorescence: Cell pellets were lysed in T-PER buffer (Pierce). […] Activin A protein levels were measured using the Duo-Set Activin ELISA kit (R&D Systems) following the manufacturer's directions. […] Levels of activin A were determined in cells from all four donors. […] The mean fluorescent intensity of γH2AX signal (voxels) in each nucleus was determined with the Volocity 4.0.0 software package (Improvision) on Z-stacks. […]

vHMEC-ras0.5 cells [2] = test: scratch migration assay of vHMEC-ras0.5 monolayers with time-lapse microscopy; conditions: TGFβ treated versus untreated cells
vHMEC-ras0.5 cells [3] = test: TGFβ-induced EMT in vHMEC-ras0.5 cells (immunofluorescence, flow cytometry, immunoblot, MSP)
Description: Having observed that extracellular signaling induced by 10% serum can cooperate with intracellular ras activation to induce EMT in vHMEC, it was then asked whether appropriate growth factor stimulation could induce EMT in the immortalized vHMEC-ras0.5 cells which had maintained their epithelial morphology. […] Thiery et al. (2003) Curr. Opinion Cell. Biol. 15:740; and Zavadil et al. (2005) Oncogene 24:5764. vHMEC-ras0.5 cells were treated with TGFβ and the expression of molecular markers associated with EMT was assessed by immunofluorescence, flow cytometry, and immunoblot analysis. […] Coincident with the loss of epithelial marker expression was an upregulation in the expression of the mesenchymal markers, twist (FIG. 18B), N-cadherin, and fibronectin (FIG. 18C).
Unlike the EMT observed in cells exposed to 10% serum, TGFβ-induced EMT is reversible. […] As expected, the promoter of the epithelial marker 14-3-3σ remained unmethylated in all the epithelial cells, and methylated in the human mammary fibroblasts, which were used as a positive control (FIG. 18D).
FIGS. 18A-D. TGFβ induces EMT in vHMEC-ras0.5 cells without modulating methylation of E-cadherin. A. Inununofluorescence analysis. Cells were treated with 2 ng/ml TGFβ for 72 h, and immunostained for pancytokeratin, E-cadherin, β 1-integrin, and vimentin. B. Flow cytometric analysis of twist expression before (green curve) and after (purple curve) treatment with 2 ng/ml TGFβ for 72 h. C. Immunoblot analysis of the mesenchymal markers fibronectin (Fn) and N-cadherin (N-cad) was performed on cell lysates prepared from vHMEC-ras0.5 that were either untreated (−) or treated (+) with 2 ng/ml TGFβ for 72 h. Cell lystates prepared from human mammary fibroblasts were used as a positive control (C) and actin is shown as a loading control. D. MSP analysis of E-cadherin and 14-3 3σ was conducted on the PCR products of bisulfite-treated DNA isolated from vHMEC-ras0.5 untreated (−TGF) or treated (+TGF) with 2 ng/ml TGFβ for 96 h as described in FIGS. 3B and C. Bisulfite-modified DNA from MCF7 and MDA-MB-231 cells was used as unmethylated and methylated control templates, respectively for E-cadherin, while bisulfite-modified DNA from MDA-MB-231 and human mammary fibroblasts (HMF) served as unmethylated and methylated controls for 14-3-3s. Also included is a water control (no template).

COX-2 in HMEC = test: exogenous induction of COX-2 by TGF-β in HMEC with modulated p16/Rb pathway (immunoblot)
Text: DNA constructs. DNA constructs used in this study are as follows: pMSCV, pMSCV-shp16 (G. Hannon and S. Lowe, Cold Spring Harbor Laboratories); pLXSN, pLXSN-HPV 16 E7 (D. Galloway, Fred Hutchinson Cancer Center); pMKO, pMKO-shRb (W. Hahn, Harvard Medical School and Dana-Farber Cancer Institute), pBabe; pBabe-cyclinD1 (O. Tetsu, UCSF Cancer Center), pBabe, pBabe-hTert (K. Collins, UC-Berkeley); LXSP and LXSP-COX-2 (D. Dixon, Vanderbilt University Medical Center). All constructs were packaged in Phoenix A cells for viral propagation. To generate stable cell lines we exposed HMEC, vHMEC or breast cell lines to viral supernatant containing 8 μg/ml Polybrene (Sigma). Cells containing stable DNA integration were selected in medium containing 4 μg/ml puromycin (pMSCV, pMKO, and LXSP constructs), 50 μg/ml G418 (LXSN constructs) or 20 μg/nil hygromycin (pBabe). Where indicated, cell lines were imaged using a standard phase contrast microscopy.
Western Blot. Total protein (15-20 μg) lysates were electrophoretically separated by SDS-PAGE and transferred onto polyvinylidene difluoride (PVDF) membranes according to standard procedures. Antisera against COX-2 (160107; Cayman Chemical, MI), Rb (554136, BD Pharmingen), p16 (16P07 Neomarkers), E2F1 (sc-251 Santa Cruz), cyclinD1 (2926, Cell Signaling), p53 (se-126, Santa Cruz), p21 (SC-6246 Santa Cruz) were used according to manufacturers protocols.
To test this hypothesis, specific members of the p16/Rb pathway were genetically modulated, and the levels of COX-2 protein expression compared to HMEC that maintain p16 expression were determined. First, basal and induced COX-2 protein levels in HMEC lacking p16 activity were compared.
To extend this analysis, we determined how other alterations within this pathway, mutations common in cancer, affect COX-2 expression. We modulated the p16/Rb pathway by three additional methods, cyclin D1 overexpression, pRb downregulation, and expression of a viral oncoprotein, HPV 16-E7 and determined the effect on basal and exogenously-induced COX-2 protein levels. To determine if cyclin D1 induces and/or sensitizes cells to COX-2 induction, we measured COX-2 protein levels in HMEC engineered to stably express cyclin D1 under the regulation of an independent, constitutively active promoter. […] The absence of E2F1 upregulation following cyclin D1 overexpression supports our finding that Rb remains active. […] To determine if inactivation of Rb is sufficient for the upregulation of COX-2, we infected HMEC with a retrovirus containing a short hairpin RNA against Rb (shRb) and determined COX-2 protein levels in cells from two independent experiments. […] Similar to results obtained with Rb genetic silencing, expression of the human papilloma virus 16-E7 (HPV 16-E7) elevated both basal and induced levels of COX-2 protein (FIG. 12D). Stable expression of HPV16-E7 was performed in cells generated from three independent reduction mammoplasties. Mammary epithelial cells expressing HPV 16-E7 show downregulation of Rb and thus inactivation of Rb and consequently upregulation of E2F1 (FIG. 12D). HPV16-E7 is well characterized for its role as a transforming oncoprotein through targeted degradation of all three members of Rb family (Rb, p107 and p130) and driving E2F-dependent transactivation.
FIG. 12A-E. Deregulation of distinct members of the p16/cyclin D1/Rb pathway differentially regulate COX-2. […]

[4] = tested on: COX-2 and phospho-p38 in vHMEC; test: exogenous activin A treatment of vHMEC; COX-2 and phospho-p38 by Q-PCR and immunoblot; conditions: exogenous activin A 48 hrs
Text: Cell Culture: Human mammary epithelial cells (vHMEC) were isolated from reduction mammoplasty (RM) of four individuals RM9, RM15, RM16 and RM18. HMEC undergo a spontaneous proliferation barrier between 8 and 12 population doublings. Variant human mammary epithelial cells (vHMEC) escape this growth barrier and have silenced p16 through promoter methylation. Cells were propagated in 2D cultures in modified MCBD 170 media (MEGM, Lonza) as previously described (Romanov et al, 2001; Hammond et al 1984). All experiments were performed on exponentially growing early passage vHMEC (between 13 to 20 population doublings); RM9, 15, 16 and 18 cease to expand in cell number at population doublings 45, 60, 50 and 53, respectively. Activin A (Sigma) and the p38 inhibitor, SB203580, (Sigma) were added to culture media for 48 and 24 hours (respectively) prior to harvest at the doses shown in FIGS. 3 and 4. The same amount of solvent for each molecule was added to the culture media for controls.
as §1, §2
FIGS. 23A-D: Activin A is Up Regulated in vHMEC and Induces COX-2. A. Box plot showing the levels of activin A mRNA measured using Q-PCR in parental vHMEC, or vHMEC over expressing vector (pWP) or TRF2 from 4 donors. p-value was calculated using ANOVA and is shown in the inset. B, Box plot showing the levels of activin A protein measured using ELISA in parental vHMEC or vHMEC over expressing vector (pWP) or TRF2 from 4 donors. […]

[5] = 2 ng/ml TGFβ for 72 h, immunofluorescence

## C[S+]([O-])c1ccc(-c2nc(-c3ccncc3)c(-c3ccc(F)cc3)[nH]2)cc1 (centres unmarked) [SB203580]
[1]; Q-PCR, ANOVA p=0.002
  COX-2 mRNA: marked decrease
[1]; immunoblot
  COX-2 protein levels: marked decrease

## TGF-β
vHMEC-ras0.5 cells [2]
  migration into the denuded area: increase in directed migration
vHMEC-ras0.5 cells [3]; 2 ng/ml TGFβ for 72 h, flow cytometry and immunoblot
  expression of the mesenchymal markers twist, N-cadherin and fibronectin: upregulation
vHMEC-ras0.5 cells [3]; [5]
  E-cadherin expression: loss
  cytokeratin expression: diminution
  β1-integrin expression: loss
vHMEC-ras0.5 cells [3]; 2 ng/ml TGFβ for 96 h, MSP
  methylation of the E-cadherin promoter: not observed
vHMEC-ras0.5 cells [3]; 2 ng/ml TGFβ, began within 48 h, clearly manifested by 72 h
  cell morphology (EMT): morphological change
COX-2 in HMEC; HMEC expressing HPV 16-E7, 24 h exposure to 1 ng/ml TGF-β
  COX-2 protein after exogenous induction: elevated
COX-2 in HMEC; HMEC overexpressing cyclin D1, 24 h exposure to 1 ng/ml TGF-β
  COX-2 protein after exogenous induction: failed to render cells sensitive
COX-2 in HMEC; HMEC with shRb, 24 h exposure to 1 ng/ml TGF-β
  COX-2 protein after exogenous induction: increased
COX-2 in HMEC; p16 silenced HMEC (shp16), 24 h exposure to 1 ng/ml TGF-β
  COX-2 protein after exogenous induction: COX-2 upregulation
COX-2 in HMEC; vector control HMEC (pMSCV), 24 h exposure to 1 ng/ml TGF-β
  COX-2 protein after exogenous induction: unresponsive

B1: activin A: a member of the TGF-β superfamily; a homodimer of the activin βA subunits (protein, UniProt P08476 311-426, looked up)
Inhibin beta A chain: GLECDGKVNICCKKQFFVSFKDIGWNDWIIAPSGYHANYCEGECPSHIAGTSGSSLSFHSTVINHYRMRGHSPFANLKSCCVPTKLRPMSMLYYDDGQNIIKKDIQNMIVEECGCS
modifications: Inhibin beta A chain
[4]; vHMEC from two donors, Q-PCR, ANOVA p=0.001
  increase in COX-2 mRNA: approximately two-fold
[4]; vHMEC from two donors, immunoblot
  increase in COX-2 protein: approximately two-fold
[4]; vHMEC, immunoblot
  levels of phospho-p38: increase

Reference: patent US12332245B2, “Cancer biomarkers and methods of use thereof” (THE REGENTS OF THE UNIVERSITY OF CALIFORNIA, priority 2006, dated 2025)
